This data set is described as follows: gradient 5% acetonitrile 3 min, to 50% in 2 min, to 85% in 15 min, held 3 min, 100 µL/min. As to conditions: column: Zorbax Extend-C18 2.1 x 50 mm; eluents: water / acetonitrile, 0.1% formic acid. In outline: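 Using water and acetonitrile that each contained 0.1% formic acid, mixtures of ~100 pure standards were separated at 100 μL/min on a Zorbax Extend-C18 column (2.1 × 50 mm, 1.8 μm). The HPLC fed a quadrupole time-of-flight mass spectrometer working in positive and negative ionization mode, with dead and dwell volumes of 40 μL and 900 μL. Data were acquired over 3 months. Retention time was read from computationally picked adduct peaks after manual inspection of each.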
As to `CC(=O)c1ccc(NC(=O)COc2cc(C)nc(-c3ccc(F)cc3)n2)cc1`, the RP-LC retention time was determined as 938 s.
Next, `Cc1[nH]nc(-c2ccc(S(=O)(=O)N3CCN(c4ccccn4)CC3)s2)c1C`: 662 s; `O=C(COc1ccc(Cl)cc1)N1CCC(c2nnc(-c3ccc(F)cc3)o2)CC1`: 831 s; `COC(=O)C(C)Sc1ncnc2sc(C)c(C)c12` (stereo not drawn): 955 s.
Next, `Cn1cc(-c2cc3n(n2)CCC(=O)N3CC(=O)NCCc2c[nH]c3ccccc23)c2ccccc21`: 825 s; `CC(C)NC(=O)C1CCN(c2nc3ccc(-c4cccc(F)c4)nc3s2)CC1`: 942 s.
Next, `CC1CCCC(NC(=O)C2CCCN(C(=O)c3cc4sccc4n3C)C2)C1C` (stereo not drawn): 991 s.
Consider `COc1ccc2c(c1)C1(CCN(C(=O)Nc3ccccc3OC)C1)C(=O)N2C` (stereo not drawn), for which the RP-LC retention time was determined as 808 s.
Turning to `CCOC(=O)c1ccccc1NC(=O)N1CCN(c2ccc(=O)n(-c3ccccc3)n2)CC1`, the RP-LC retention time was 995 s.
Next, `COc1ccc(-c2noc(C3CCCN3C(=O)Nc3ccc(F)cc3F)n2)cc1` (stereo not drawn): 963 s; `COC(=O)c1ncn2c1C(=O)N(c1ccc(C(C)C)cc1)C(C)(C(=O)NC1CCCC1)C2` (stereo not drawn): 817 s; `Cc1ccc(S(=O)(=O)N2CCC(CCNC(=O)NC(C)C)CC2)cc1`: 796 s.
Next, `Cc1ccc(-n2nc(N3CCCC(C(=O)NCc4ccccc4)C3)ccc2=O)cc1Cl` (stereo not drawn): 901 s; `CCOc1ccccc1NC(=O)C1CCN(S(=O)(=O)c2ccc3c(c2)NC(=O)C(CC)O3)CC1` (stereo not drawn): 953 s.
To `O=C(c1ccccc1)N1C[C@@H]2C[C@H]1C[C@@H]2NS(=O)(=O)c1ccccc1` belongs 752 s.
With `O=C(CCn1nnc2cc(-c3noc(Cc4ccccc4Br)n3)ccc21)N1CCOCC1`, the RP-LC retention time turned out to be 860 s.
`O=C(Cn1cc(S(=O)(=O)Cc2cccc(Cl)c2)c2ccccc21)N1CCOCC1` displayed an RP-LC retention time of 774 s.
Next, `Cc1nnc2n1CCC(NC(=O)c1cscn1)CC2` (stereo not drawn): 542 s; `CCCNC(=O)N1CC(c2nc(-c3ccccc3)no2)C2(CCOCC2)C1` (stereo not drawn): 770 s.
Next, `COc1ccc(-c2cc3nn(CC(=O)Nc4ccc(F)c(Cl)c4)c(=O)n3c(C)n2)cc1`: 992 s; `COc1ccc(NC(=O)NCC2(CO)CC2)cc1OC`: 581 s; `CCc1noc(-c2cnc3nc(C)ccc3c2NC(C)c2ccc(F)cc2)n1` (stereo not drawn): 798 s.
Molecule `CCOC(=O)CNC(=O)N1CCC(N2CCN(Cc3cccc(C)c3)C2=O)CC1` yielded an RP-LC retention time of 725 s.
To `O=C(NCc1noc(C2CCCC2)n1)c1ccc(F)cc1` belongs 798 s; to `Cc1ccc(-c2nnc(-c3nn(C)c4c3CN(S(=O)(=O)Cc3ccccc3Cl)CC4)o2)cc1`, 1020 s.
To `COC(=O)c1ccc(OC)c(Cn2cnc3c(-c4ccccc4C)csc3c2=O)c1` belongs 1060 s.
The molecule `COCCNCc1c(C(=O)O)c(C)n(Cc2cccc(Cl)c2)c1C` returned an RP-LC retention time of 679 s.
Next, `COc1cccc(-c2noc(CN3C(=O)COc4ccc(C)cc43)n2)c1OC`: 981 s.
Next, `COc1ccc(NC(=O)C2CC(=O)N(c3cccc(NC(C)=O)c3)C2)cc1Cl` (stereo not drawn): 709 s; `Cc1cc(S(=O)(=O)N2CCCC(Cn3cnc4cccnc43)C2)ccc1Cl` (stereo not drawn): 866 s.
Next, `CCN1CCN(C(=O)c2cc3c(=O)n(Cc4ccco4)ccc3nc2C)CC1`: 664 s; `Cc1ccc(Nc2c(-c3ccc(C(=O)O)cc3)nc3cnccn23)c(C)c1`: 928 s; `CCOc1ccccc1NC(=O)N1CC(n2ccnc2C)C1`: 639 s.
`Cc1c(C(=O)O)nnn1Cc1cccc(C(F)(F)F)c1` showed an RP-LC retention time of 744 s.
`CCOc1ccc(-c2nc(C3CC(=O)N(c4ccc(F)cc4)C3)no2)cc1OCC` (stereo not drawn) gave an RP-LC retention time of 1050 s.
To `O=C(NC1(c2nc(-c3ccccc3)no2)CCCCC1)c1ccc(Br)cc1` belongs 1240 s; to `O=C(Nc1ccc(-c2nnc3n2CCCC3)cc1)c1ccc2ccccc2n1`, 773 s.
To `Cc1ccccc1CC(=O)N1CCCC1c1c(C)noc1C` (stereo not drawn) belongs 797 s; to `CC(C)CC(=O)NCCn1c(=O)n(Cc2ccc(F)cc2)c2cccnc21`, 750 s.
In turn, `Cc1cc(F)ccc1N1C(=O)CN(S(C)(=O)=O)CC1(C)C(=O)NCc1ccc(Cl)cc1` (stereo not drawn) registered an RP-LC retention time of 856 s.
Next, `CCN1C(=O)CCc2cc(NC(=O)Cc3c(F)cccc3Cl)ccc21`: 792 s; `CCc1ccc2c(c1)-c1ccccc1S(=O)(=O)N2CC(=O)NCc1cccnc1`: 684 s.
To `CCOc1ccc(CN2C[C@@H]3C(=O)N(Cc4ccc5c(c4)OCO5)C(=O)[C@@H]3C2)cc1` belongs 658 s.
As to `COc1cc(OC)cc(-c2nnc(Cc3nc(-c4ccc5c(c4)OCO5)no3)o2)c1`, the RP-LC retention time turned out to be 978 s.
Turning to `CCOc1ccc(CC(=O)NC(CC(C)C)C(=O)Nc2nc3ccccc3[nH]2)cc1OCC` (stereo not drawn), the RP-LC retention time amounted to 758 s.
In turn, `Cc1ccc(NC(=O)N2CCc3c(c(-c4nc(C)no4)nn3C)C2)cc1` displayed an RP-LC retention time of 750 s.
`Cc1oc(-c2[nH]ncc2C(=O)N2CCOCC2)cc1S(=O)(=O)N1CCC(C)CC1` gave an RP-LC retention time of 703 s.
`COc1ccc(CC(=O)N2CCC3(CC2)NC(=O)c2ccc(F)cc2N3C)cc1` returned an RP-LC retention time of 759 s.
To `CC(=O)Nc1c(C)nn(-c2ccccc2)c1N1CCC(C(=O)N2CCN(C3CCCCC3)CC2)CC1` belongs 597 s; to `Cc1cc(C)cc(NC(=O)N2CCC(c3cc(N)on3)CC2)c1`, 728 s.
To `O=C(c1cccc(Cl)c1)N1CCN(C(=O)c2nnn3c2COC(c2ccccc2)C3)CC1` (stereo not drawn) belongs 900 s.
To `CCn1cc(-c2nc(C)c(C(=O)NCc3cc(F)cc(F)c3)s2)c2cccnc21` belongs 884 s.
For `COc1ccc(OC)c(CNC(=O)C2CCN(c3cnc4nccnc4c3)CC2)c1`, the RP-LC retention time came to 680 s.
Regarding `O=C1COc2cc(S(=O)(=O)N3CCC(C(=O)N4CCc5ccccc5C4)CC3)c(Cl)cc2N1`, the RP-LC retention time was 838 s.
To `COc1ccc(NC(=O)c2sc(-c3cn(C)c4ncccc34)nc2C)c(C)c1` belongs 881 s.
To `COc1ccc(NC(=O)N2CCCC2c2nc(-c3cccc(C)c3)no2)cc1` (stereo not drawn) belongs 827 s; to `O=C(Nc1ccc2c(c1)OCO2)N1CCN(c2nc3cccnc3n(Cc3ccccc3)c2=O)CC1`, 1010 s; to `CCCNC(=O)Cn1c(CNC(C)=O)nc2ccccc21`, 575 s.
To `CN(CCc1noc(-c2ccc(Cl)cc2)n1)C(=O)COc1ccc(F)cc1` belongs 993 s.
For `CNC(=O)N1CCCC(Cn2cnc3cccnc32)C1` (stereo not drawn), the RP-LC retention time worked out at 574 s.
To `CC(NC(=O)CC1CCCCC1)C(=O)Nc1nc2ccccc2[nH]1` (stereo not drawn) belongs 663 s.
To `CCCOC(=O)C1=C(C)NC2=C(C(=O)C(C(=O)OC)C(C)C2)C1c1ccc(N(C)C)cc1` (stereo not drawn) belongs 668 s; to `COc1ccc(NC(=O)Cn2c(=O)n(-c3ccc(C)cc3)c(=O)c3c2cc(C)n3C)c(OC)c1`, 872 s.
Next, `Cc1ccccc1Cn1c(CN2CCC(C(=O)NC(C)Cc3ccco3)CC2)cc2ccccc21` (stereo not drawn): 833 s; `O=C(NCc1cccs1)NCC1CN(c2cccc(Cl)c2)C(=O)O1` (stereo not drawn): 731 s; `Cc1ccccc1CNC(=O)C1(C)CCCN(C(=O)NC2CCCCC2)C1` (stereo not drawn): 904 s.
Molecule `O=C([C@@H]1C[C@H](F)CN1S(=O)(=O)c1ccccc1F)N1CCCCC1` had an RP-LC retention time of 743 s.
To `COc1ccc(C)cc1NC(=O)N1CCCC1c1c(C)noc1C` (stereo not drawn) belongs 840 s.
To `Cc1ccccc1NC(=O)Cn1c(=O)n(-c2ccc(F)cc2)c2ncccc21` belongs 814 s.
Next, `COc1ccc(OC)c(NC(=O)c2cc(C(C)(C)C)n3nccc3n2)c1`: 768 s; `COCCCNC(=O)C1c2ccccc2C(=O)N1Cc1cccc(Br)c1` (stereo not drawn): 750 s.
`CCc1ccc(NC(=O)C2CCCN(c3ccc(=O)n(-c4cccc(Cl)c4)n3)C2)cc1` (stereo not drawn): the RP-LC retention time came to 922 s.
To `Cc1ccc(C)c(N2CCN(c3ccnc(SCC(=O)NCCC4=CCCCC4)n3)CC2)c1` belongs 1090 s; to `Cc1ccc(-c2ncc(C(=O)NC(C)c3ccccn3)c(-c3ccncc3)n2)cc1` (stereo not drawn), 685 s; to `O=C(NC1CCCCC1)C1CCN(C(=O)c2ncn3c2COC(c2ccc(Cl)cc2)C3)CC1` (stereo not drawn), 844 s.
`CCCCCN1CC(=O)N(c2cccc(Cl)c2)[C@@H]2CS(=O)(=O)C[C@@H]21` had an RP-LC retention time of 854 s.
Molecule `O=C(Nc1ccc(F)cc1Br)c1cnc(-c2ccccc2)nc1-c1ccncc1` came in with an RP-LC retention time of 935 s.
As to `Cc1nn2c(CNS(=O)(=O)c3ccccc3)c(-c3ccccc3)nc2s1`, the RP-LC retention time stood at 818 s.
